Values after ≈ are worked out from the molar mass of the structure shown. Like-named read-outs stand apart in the source and are kept apart here.
What was measured:
[1] = tested on: E. coli control strain lacking a β-lactamase; assay: microbe, parasite or virus in culture; format: cell-based; settings: Escherichia coli, no KPC expressed, BLIs at fixed 4 μg/mL
[2] = tested on: engineered E. coli strain expressing KPC-2^V240G; assay: microbe, parasite or virus in culture; format: cell-based; settings: Escherichia coli, BLIs at fixed 4 μg/mL
[3] = tested on: engineered E. coli strain expressing KPC-2^D179Y; assay: microbe, parasite or virus in culture; format: cell-based; settings: Escherichia coli, BLIs at fixed 4 μg/mL
[4] = tested on: engineered E. coli strain expressing KPC-3^D179Y/T243M; assay: microbe, parasite or virus in culture; format: cell-based; settings: Escherichia coli, BLIs at fixed 4 μg/mL
[5] = tested on: engineered E. coli strain expressing KPC-2^D179Y/T243M; assay: microbe, parasite or virus in culture; format: cell-based; settings: Escherichia coli, BLIs at fixed 4 μg/mL
[6] = tested on: engineered E. coli strain expressing KPC-3 wt; assay: microbe, parasite or virus in culture; format: cell-based; settings: Escherichia coli; KPC-3 wt strain; BLIs at fixed 4 μg/mL
[7] = tested on: engineered E. coli strain expressing KPC-3^D179Y; assay: microbe, parasite or virus in culture; format: cell-based; settings: Escherichia coli, BLIs at fixed 4 μg/mL
[8] = tested on: engineered E. coli strain expressing KPC-3^V240G; assay: microbe, parasite or virus in culture; format: cell-based; settings: Escherichia coli, BLIs at fixed 4 μg/mL
[9] = tested on: engineered E. coli strain expressing KPC-2 wt; assay: microbe, parasite or virus in culture; format: cell-based; settings: Escherichia coli; KPC-2 wt strain; BLIs at fixed 4 μg/mL
KPC-2 WT [10] = target: T1, KPC-2 WT (Klebsiella pneumoniae, UniProt Q9F663); assay: biochemical; settings: inhibition of CENTA hydrolysis, read-out: Apparent affinity Ki^app
KPC-3 WT [11] = target: T2, KPC-3 WT (Klebsiella pneumoniae, UniProt Q9F663, H272Y); assay: biochemical; settings: inhibition of CENTA hydrolysis, read-out: Apparent affinity Ki^app
KPC-2^D179Y = KPC-2^D179Y (Klebsiella pneumoniae, UniProt Q9F663, D178Y); assay: Inhibition kinetics (CENTA hydrolysis, jump dilution), KPC-2 D179Y; format: biochemical; settings: for Kd: estimated from ratio koff / k2/K; for koff: jump dilution
Description: (§1) Measurements to determine kinetic parameters for hydrolysis, and kinetic parameters for inhibition were performed at ambient temperature in PBS (pH 7.4) containing 0.1 mg/mL bovine serum albumin, using a PowerWaveXS plate reader (BioTek).
(§2) Second-order rate constants (k2/K) denoting the inactivation efficiency of BLIs were determined by continuously measuring CENTA (100 µM) hydrolysis ([28]) in the presence of various concentrations of BLI. Progress curves were fit to equation 3 using GraphPad Prism, where Ai and A0 are the measured and basal absorbance, vi and vs are initial and final velocity, and t is time in seconds. k2/K was derived with equation 4. Koff was determined by the jump dilution method ([24]). Kd was estimated from the ratio between koff and k2/K.
(§3) (3) Ai=A0+vst(vi-vs)[1-e^-(kobs)t/kobs]
(§4) (4) kobs=k-2+(k2/KI)[I]/1+[S]/KM

KPC-2^V240G = KPC-2^V240G (Klebsiella pneumoniae, UniProt Q9F663, V239G); assay: Inhibition kinetics (CENTA hydrolysis, jump dilution), KPC-2 V240G; format: biochemical; settings: for Kd: estimated from ratio koff / k2/K; for koff: jump dilution
Description: as §1, §2, §3, §4

KPC-2^D179Y/T243M = KPC-2^D179Y/T243M (Klebsiella pneumoniae, UniProt Q9F663, D178Y/T242M); assay: Inhibition kinetics (CENTA hydrolysis, jump dilution), KPC-2 D179Y/T243M; format: biochemical; settings: for Kd: estimated from ratio koff / k2/K; for koff: jump dilution
Description: as §1, §2, §3, §4

KPC-3 WT [12] = target: T2, KPC-3 WT; assay: Inhibition kinetics (CENTA hydrolysis, jump dilution), KPC-3 wt; format: biochemical; settings: for Kd: estimated from ratio koff / k2/K; for koff: jump dilution
Description: as §1, §2, §3, §4

KPC-3^D179Y = KPC-3^D179Y (Klebsiella pneumoniae, UniProt Q9F663, D178Y/H272Y); assay: Inhibition kinetics (CENTA hydrolysis, jump dilution), KPC-3 D179Y; format: biochemical; settings: for Kd: estimated from ratio koff / k2/K; for koff: jump dilution
Description: as §1, §2, §3, §4

[13] = tested on: KPC-3^D179Y and KPC-3^D179Y/T243M; assay: Inhibition kinetics, summary for KPC-3 D179Y variants; format: biochemical, Klebsiella pneumoniae; settings: range over TAN, LED, AVI and both KPC-3 D179Y variants
Description: as §1, §2, §3, §4

KPC-3^D179Y/T243M = KPC-3^D179Y/T243M (Klebsiella pneumoniae, UniProt Q9F663, D178Y/H272Y/T242M); assay: Inhibition kinetics (CENTA hydrolysis, jump dilution), KPC-3 D179Y/T243M; format: biochemical; settings: for Kd: estimated from ratio koff / k2/K; for koff: jump dilution
Description: as §1, §2, §3, §4

KPC-2 WT [14] = target: T1, KPC-2 WT; settings: previously reported; cited from earlier work
KPC-3^V240G = KPC-3^V240G (Klebsiella pneumoniae, UniProt Q9F663, H272Y/V239G); assay: Inhibition kinetics (CENTA hydrolysis, jump dilution), KPC-3 V240G; format: biochemical; settings: for Kd: estimated from ratio koff / k2/K; for koff: jump dilution
Description: as §1, §2, §3, §4

[15] = tested on: E. coli strains expressing KPC-2^D179Y or KPC-2^D179Y/T243M; assay: microbe, parasite or virus in culture; format: cell-based
KPC-2 WT [16] = target: T1, KPC-2 WT; format: biochemical
Description: as §1, §2, §3, §4

[17] = pH 7.4, inactivation efficiency, read-out: k2/K

Nc1nc(/C(=C/CC(=O)O)C(=O)N[C@@H]2C(=O)N3C(C(=O)O)=CCS[C@H]23)cs1 [CTB, ceftibuten]
MIC [1]: 1 µg/mL (≈ 2.44 µM) | MIC [2]: 64 µg/mL (≈ 156 µM) | MIC [3]: 16 µg/mL (≈ 39 µM) | MIC [4]: 16 µg/mL (≈ 39 µM) | MIC [5]: 16 µg/mL (≈ 39 µM) | MIC [6]: 32 µg/mL (≈ 78 µM) | MIC [7]: 32 µg/mL (≈ 78 µM) | MIC [8]: 32 µg/mL (≈ 78 µM) | MIC [9]: 16 µg/mL (≈ 39 µM) | Ki (KPC-2 WT [10]): 159000 ± 10000 nM | Ki (KPC-3 WT [11]): 368000 ± 26000 nM

CCC(=O)N[C@H]1Cc2cccc(C(=O)O)c2OB1O [LED, ledaborbactam]
t1/2 (KPC-2^D179Y; KPC-2 D179Y): 16.7 ± 0.5 min | Kd (KPC-2^D179Y; KPC-2 D179Y): 1300 nM | koff (KPC-2^D179Y; KPC-2 D179Y, read-out: koff): 0.00069 s⁻¹ | kinact/KI (KPC-2^D179Y; pH 7.4, inactivation efficiency, KPC-2 D179Y, read-out: k2/K): 520 M⁻¹ s⁻¹ | t1/2 (KPC-2^V240G): 32 ± 1 min | Kd (KPC-2^V240G): 12 nM | koff (KPC-2^V240G; read-out: koff): 0.00037 s⁻¹ | kinact/KI (KPC-2^V240G; [17]): 31000 M⁻¹ s⁻¹ | t1/2 (KPC-2^D179Y/T243M; KPC-2 D179Y/T243M): 18.6 ± 2.7 min | Kd (KPC-2^D179Y/T243M; KPC-2 D179Y/T243M): 1500 nM | koff (KPC-2^D179Y/T243M; KPC-2 D179Y/T243M, read-out: koff): 0.00063 s⁻¹ | kinact/KI (KPC-2^D179Y/T243M; pH 7.4, inactivation efficiency, KPC-2 D179Y/T243M, read-out: k2/K): 430 M⁻¹ s⁻¹ | t1/2 (KPC-3 WT [12]): 19.6 ± 0.2 min | Kd (KPC-3 WT [12]): 220 nM | koff (KPC-3 WT [12]; read-out: koff): 0.00059 s⁻¹ | kinact/KI (KPC-3 WT [12]; [17]): 2700 M⁻¹ s⁻¹ | t1/2 (KPC-3^D179Y): 17.2 ± 0.3 min | Kd (KPC-3^D179Y): 1250 nM | koff (KPC-3^D179Y; read-out: koff): 0.00067 s⁻¹ | kinact/KI (KPC-3^D179Y; [17]): 540 M⁻¹ s⁻¹ | reduced inactivation efficiencies relative to KPC-3^wt [13]: 2–14 fold | t1/2 (KPC-3^D179Y/T243M): 18.1 ± 2.2 min | Kd (KPC-3^D179Y/T243M): 620 nM | koff (KPC-3^D179Y/T243M; read-out: koff): 0.00065 s⁻¹ | kinact/KI (KPC-3^D179Y/T243M; [17]): 1000 M⁻¹ s⁻¹ | Kd (KPC-2 WT [14]): 9 nM | k2/K (KPC-2 WT [14]): (2.9 ± 0.07) × 10^4 M^−1⋅s^−1 | koff (KPC-2 WT [14]): (2.5 ± 0.1) × 10^−4 s^−1 | t1/2 (KPC-3^V240G): 19.3 ± 0.4 min | Kd (KPC-3^V240G): 46 nM | koff (KPC-3^V240G; read-out: koff): 0.0006 s⁻¹ | kinact/KI (KPC-3^V240G; [17]): 13000 M⁻¹ s⁻¹

C[C@@H](O)[C@H]1C(=O)N2C(C(=O)O)=C(S[C@@H]3CN[C@H](C(=O)N(C)C)C3)[C@H](C)[C@H]12 [MEM, meropenem]
MIC [1]: 0.03 µg/mL (≈ 0.0782 µM) | MIC [2]: 8 µg/mL (≈ 20.9 µM) | MIC [3]: 0.25 µg/mL (≈ 0.652 µM) | MIC [4]: 0.12 µg/mL (≈ 0.313 µM) | MIC increase relative to the control strain [15]: eightfold | MIC [5]: 0.25 µg/mL (≈ 0.652 µM) | MIC [6]: 16 µg/mL (≈ 41.7 µM) | MIC [7]: 0.12 µg/mL (≈ 0.313 µM) | MIC [8]: 16 µg/mL (≈ 41.7 µM) | MIC [9]: 32 µg/mL (≈ 83.4 µM)

NCCN[C@H]1CC[C@H](CC(=O)N[C@H]2Cc3cccc(C(=O)O)c3OB2O)CC1 [TAN, taniborbactam]
t1/2 (KPC-2^D179Y; KPC-2 D179Y): 231 ± 19.4 min | Kd (KPC-2^D179Y; KPC-2 D179Y): 2900 nM | koff (KPC-2^D179Y; KPC-2 D179Y): (5.0 ± 0.4) × 10^−5 s^−1 | reduction in k2/K (KPC-2^D179Y; KPC-2^D179Y relative to KPC-2 wt): roughly 500 fold | k2/K (KPC-2^D179Y; inactivation efficiency, KPC-2 D179Y): 17 ± 0.7 M^−1⋅s^−1 | t1/2 (KPC-2^V240G): 106 ± 2.3 min | Kd (KPC-2^V240G): 55 nM | k2/K (KPC-2^V240G; inactivation efficiency): (0.2 ± 0.02) × 10^4 M^−1⋅s^−1 | koff (KPC-2^V240G): (1.1 ± 0.03) × 10^−4 s^−1 | t1/2 (KPC-2^D179Y/T243M; KPC-2 D179Y/T243M): 222.3 ± 13.7 min | Kd (KPC-2^D179Y/T243M; KPC-2 D179Y/T243M): 3400 nM | koff (KPC-2^D179Y/T243M; KPC-2 D179Y/T243M): (5.2 ± 0.3) × 10^−5 s^−1 | reduction in k2/K (KPC-2^D179Y/T243M; KPC-2^D179Y/T243M relative to KPC-2 wt): ~600 fold | k2/K (KPC-2^D179Y/T243M; inactivation efficiency, KPC-2 D179Y/T243M): 15.2 ± 0.1 M^−1⋅s^−1 | t1/2 (KPC-3 WT [12]): 34 ± 4 min | Kd (KPC-3 WT [12]): 9 nM | k2/K (KPC-3 WT [12]; inactivation efficiency): (3.9 ± 0.4) × 10^4 M^−1⋅s^−1 | koff (KPC-3 WT [12]): (3.5 ± 0.4) × 10^−4 s^−1 | t1/2 (KPC-2 WT [16]): 104 ± 2.3 min | Kd (KPC-2 WT [16]; estimated from ratio koff / k2/K): 11 nM | k2/K (KPC-2 WT [16]; inactivation efficiency, CENTA 100 µM): (0.9 ± 0.02) × 10^4 M^−1⋅s^−1 | koff (KPC-2 WT [16]; jump dilution): (1.0 ± 0.04) × 10^−4 s^−1 | t1/2 (KPC-3^D179Y): 14.3 ± 1.2 min | Kd (KPC-3^D179Y): 290 nM | k2/K (KPC-3^D179Y; inactivation efficiency): (2.8 ± 0.2) × 10^3 M^−1⋅s^−1 | koff (KPC-3^D179Y): (8.1 ± 0.7) × 10^−4 s^−1 | reduced inactivation efficiencies relative to KPC-3^wt [13]: 2–14 fold | t1/2 (KPC-3^D179Y/T243M): 14.6 ± 5 min | Kd (KPC-3^D179Y/T243M): 193 nM | k2/K (KPC-3^D179Y/T243M; inactivation efficiency): (4.4 ± 0.7) × 10^3 M^−1⋅s^−1 | koff (KPC-3^D179Y/T243M): (8.5 ± 2.5) × 10^−4 s^−1 | t1/2 (KPC-3^V240G): 14.4 ± 0.7 min | Kd (KPC-3^V240G): 18 nM | k2/K (KPC-3^V240G; inactivation efficiency): (4.4 ± 0.9) × 10^4 M^−1⋅s^−1 | koff (KPC-3^V240G): (8.0 ± 0.4) × 10^−4 s^−1
